From patent publication US8124624B2, “Substituted sulfonamide compounds” (Gruenenthal GmbH, priority 2008, dated 2012)

Target: T1, B1R of the rat (Rattus norvegicus, UniProt P97583)
T1 construct: expressed in transfected cells; host or cells: CHO K1 cells (rB1R cells)
T1 sequence (P97583 1-337): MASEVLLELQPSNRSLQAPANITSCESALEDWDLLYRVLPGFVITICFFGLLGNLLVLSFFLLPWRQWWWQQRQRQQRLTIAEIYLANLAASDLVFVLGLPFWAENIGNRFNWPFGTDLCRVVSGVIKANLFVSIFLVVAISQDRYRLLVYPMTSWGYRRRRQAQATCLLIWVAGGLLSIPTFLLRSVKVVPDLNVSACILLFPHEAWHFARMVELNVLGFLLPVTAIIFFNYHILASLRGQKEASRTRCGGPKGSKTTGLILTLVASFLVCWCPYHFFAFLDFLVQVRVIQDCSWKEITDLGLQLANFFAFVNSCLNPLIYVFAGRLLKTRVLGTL
Experiment: FLIPR Ca2+ influx assay, B1R antagonism, rat (rB1R CHO K1 cells)
Format: cell-based
Conditions: test substance 10 μM; CHO K1 cells stably transfected with rat B1R; agonist Des-Arg9-bradykinin at EC80; % inhibition compared with maximum achievable inhibition
Method: The agonistic or antagonistic action of substances can be quantified on the bradykinin receptor 1 (B1R) of the species human and rat using ectopically expressing cell lines (CHO K1 cells) and with the aid of a Ca^2+-sensitive dye (Fluo-4) using a fluorescent imaging plate reader (FLIPR). The indication in % activation is based on the Ca^2+ signal after addition of Lys-Des-Arg^9-bradykinin (0.5 nM) or Des-Arg^9-bradykinin (100 nM). Antagonists lead to suppression of the Ca^2+ influx after the addition of the agonist. % Inhibition compared with the maximum achievable inhibition is indicated.
The agonistic or antagonistic action of substances can be determined on the bradykinin receptor 1 (B1R) of the species human and rat using the following assay. According to this assay, the Ca^2+ influx through the channel is quantified with the aid of a Ca^2+-sensitive dye (Fluo-4 type, Molecular Probes Europe BV, Leiden, Netherlands) using a Fluorescent Imaging Plate Reader (FLIPR, Molecular Devices, Sunnyvale, USA).
Chinese hamster ovary cells (CHO K1 cells) which have been stably transfected with the human B1R gene (hB1R cells) or with the B1R gene of the rat (rB1R cells) are used. For functional studies, the cells are plated out on black 96-well plates having a clear base (BD Biosciences, Heidelberg, Germany or Greiner, Frickenhausen, Germany) in a density of 20,000-35,000 cells/well. The cells are incubated overnight at 37° C. and with 5% CO2 in culture medium (hB1R cells: Nutrient Mixture Ham's F12, Gibco Invitrogen GmbH, Karlsruhe, Germany or DMEM, Sigma-Aldrich, Taufkirchen, Germany; rB1R cells: D-MEM/F12, Gibco Invitrogen GmbH, Karlsruhe, Germany), with 10 vol. % FBS (fetal bovine serum, Gibco Invitrogen GmbH, Karlsruhe, Germany or PAN Biotech GmbH, Aidenbach, Germany).
On the following day, the cells are loaded for 60 minutes at 37° C. with 2.13 μM Fluo-4 (Molecular Probes Europe BV, Leiden, Netherlands) in HBSS buffer (Hank's buffered saline solution, Gibco Invitrogen GmbH, Karlsruhe, Germany) […] (Sigma-Aldrich, Taufkirchen, Germany) and 10 mM HEPES (Sigma-Aldrich, Taufkirchen, Germany). The plates are then washed twice with HBSS buffer, and HBSS buffer additionally containing 0.1% BSA (bovine serum albumin; Sigma-Aldrich, Taufkirchen, Germany), 5.6 mM glucose and 0.05% gelatin (Merck KGaA, Darmstadt, Germany) is added to the plates. After incubation for a further 20 minutes at room temperature, the plates are inserted into the FLIPR for Ca^2+ measurement.
Alternatively, washing is carried out with buffer A (15 mM HEPES, 80 mM NaCl, 5 mM KCl, 1.2 mM CaCl2, 0.7 mM MgSO4, 2 g/l glucose, 2.5 mM probenecid) followed by loading with buffer A with added 2.5 μM Fluo-4 and 0.025% Pluronic F127 (Sigma-Aldrich, Taufkirchen, Germany). The cells are then washed twice with buffer A and incubated for 30 minutes at room temperature with buffer A additionally containing 0.05% BSA and 0.05% gelatin and are then inserted into the FLIPR for Ca^2+ measurement.
The Ca^2+-dependent fluorescence is measured before and after the addition of substances (λex=488 nm, λem=540 nm). Quantification is carried out by measuring the highest fluorescence intensity (FC, fluorescence counts) over time.
The FLIPR protocol consists of two substance additions. Test substances (10 μM) are first pipetted onto the cells and the Ca^2+ influx is compared with the control (hB1R: Lys-Des-Arg^9-bradykinin >=50 nM; rB1R: Des-Arg^9-bradykinin 10 μM). This gives the activation in %, based on the Ca^2+ signal after addition of Lys-Des-Arg^9-bradykinin (>=50 nM) or Des-Arg^9-bradykinin (10 μM). After 10-20 minutes' incubation, Lys-Des-Arg^9-bradykinin (hB1R) or Des-Arg^9-bradykinin (rB1R) is applied in the concentration of the EC80, and the influx of Ca^2+ is likewise determined. Antagonists lead to suppression of the Ca^2+ influx. The % inhibition compared with the maximum achievable inhibition is calculated. […]

| B1R antagonism, rat [10 μM] % inhibition [%] | Compound |
| --- | --- |
| 99 | CS(=O)(=O)N(CCOCC(=O)N1CCC(CCCN2CCCC2)(c2ccncc2)CC1)C(c1ccccc1)c1ccccc1 [Example 66, N-Benzhydryl-N-[2-[2-oxo-2-[4-pyridin-4-yl-4-(3-pyrrolidin-1-yl-propyl)-piperidin-1-yl]-ethoxy]-ethyl]-methanesulfonic acid amide] |
| 83 | O=C(COCC1CCc2ccccc2N1S(=O)(=O)c1ccc2ccccc2c1)N1CCC(CCCN2CCCC2)(c2cccnc2)CC1 (stereo not shown) [Example 52, 2-[[1-(Naphthalen-2-ylsulfonyl)-1,2,3,4-tetrahydro-quinolin-2-yl]-methoxy]-1-[4-pyridin-3-yl-4-(3-pyrrolidin-1-yl-propyl)-piperidin-1-yl]-ethanone] |
| 102 | COc1cc(C)c(S(=O)(=O)N2CCCCC2CCCC(=O)N2CCC(CCCN3CCCC3)(c3ccncc3)CC2)c(C)c1 (stereo not shown) [Example 63, 4-[1-[(4-Methoxy-2,6-dimethyl-phenyl)sulfonyl]-piperidin-2-yl]-1-[4-pyridin-4-yl-4-(3-pyrrolidin-1-yl-propyl)-piperidin-1-yl]-butan-1-one] |

Same assay, conditions: test substance 10 μM; CHO K1 cells stably transfected with rat B1R; agonist Des-Arg9-bradykinin at EC80; % inhibition compared with maximum achievable inhibition; read-out: B1R antagonism, rat [10 μM] % inhibition

| inhibition at 10 µM [%] | Compound |
| --- | --- |
| 100 | COc1cc(C)c(S(=O)(=O)N2CCCCC2CCCC(=O)N2CCC(CCCN3CCCC3)(c3ccncc3)CC2)c(C)c1 (stereo not shown) [Example 62, 4-[1-[(4-Methoxy-2,6-dimethyl-phenyl)sulfonyl]-piperidin-2-yl]-1-[4-pyridin-4-yl-4-(3-pyrrolidin-1-yl-propyl)-piperidin-1-yl]-butan-1-one] |
| 100 | COc1cc(C)c(S(=O)(=O)N(C)CCOCC(=O)N2CCC(CCCN3CCCC3)(c3ccncc3)CC2)c(C)c1 [Example 30, 4-Methoxy-N,2,6-trimethyl-N-[2-[2-oxo-2-[4-pyridin-4-yl-4-(3-pyrrolidin-1-yl-propyl)-piperidin-1-yl]-ethoxy]-ethyl]-benzenesulfonic acid amide] |
| 68 | O=C(COCC1COc2ccccc2N1S(=O)(=O)c1ccccc1C(F)(F)F)N1CCC(CCCN2CCCC2)(c2ccncc2)CC1 (stereo not shown) [Example 75, 1-[4-Pyridin-4-yl-4-(3-pyrrolidin-1-yl-propyl)-piperidin-1-yl]-2-[[4-[[2-(trifluoromethyl)-phenyl]sulfonyl]-3,4-dihydro-2H-[1,4]benzoxazin-3-yl]-methoxy]-ethanone] |
| 98 | COc1cc(C)c(S(=O)(=O)N2c3ccccc3CCC2COCC(=O)N2CCC(CCCN3CCCC3)(c3ccncc3)CC2)c(C)c1 (stereo not shown) [Example 55, 2-[[1-[(4-Methoxy-2,6-dimethyl-phenyl)sulfonyl]-1,2,3,4-tetrahydro-quinolin-2-yl]-methoxy]-1-[4-pyridin-4-yl-4-(3-pyrrolidin-1-yl-propyl)-piperidin-1-yl]-ethanone] |
| 99 | O=C(CCCC1CCCCN1S(=O)(=O)c1ccccc1C(F)(F)F)N1CCC(CCCN2CCCC2)(c2ccncc2)CC1 (stereo not shown) [Example 58, 1-[4-Pyridin-4-yl-4-(3-pyrrolidin-1-yl-propyl)-piperidin-1-yl]-4-[1-[[2-(trifluoromethyl)-phenyl]sulfonyl]-piperidin-2-yl]-butan-1-one] |
| 97 | COc1cc(C)c(S(=O)(=O)N2CCCCC2COCC(=O)N2CCC(CCCN3CCCC3)(c3ccncc3)CC2)c(C)c1 (stereo not shown) [Example 28, 2-[[1-[(4-Methoxy-2,6-dimethyl-phenyl)sulfonyl]-piperidin-2-yl]-methoxy]-1-[4-pyridin-4-yl-4-(3-pyrrolidin-1-yl-propyl)-piperidin-1-yl]-ethanone] |
| 80 | O=C(COCC1CCc2ccccc2N1S(=O)(=O)c1ccc2ccccc2c1)N1CCC(CCCN2CCCC2)(c2cccnc2)CC1 (stereo not shown) [Example 51, 2-[[1-(Naphthalen-2-ylsulfonyl)-1,2,3,4-tetrahydro-quinolin-2-yl]-methoxy]-1-[4-pyridin-3-yl-4-(3-pyrrolidin-1-yl-propyl)-piperidin-1-yl]-ethanone] |
